Experimental data reported in patent US20110263647A1 (AMGEN INC., priority 2009, published 2011).
Like-named read-outs stand apart in the source and are kept apart here.

Legend:
CYP2D6 = biological target: T1, CYP2D6 (Homo sapiens, UniProt P10635); experiment: CYP2D6 inhibition assay (bufuralol, pooled human liver microsomes); type: in vitro ADME; conditions: pH 7.4, probe bufuralol (5 μM), test compound 3 μM, human liver microsomes 0.25 mg/mL
T1 construct: tissue XenoTech LLC Lot 0610351; host or cells: pooled human liver microsomes
T1 sequence (P10635 whole entry): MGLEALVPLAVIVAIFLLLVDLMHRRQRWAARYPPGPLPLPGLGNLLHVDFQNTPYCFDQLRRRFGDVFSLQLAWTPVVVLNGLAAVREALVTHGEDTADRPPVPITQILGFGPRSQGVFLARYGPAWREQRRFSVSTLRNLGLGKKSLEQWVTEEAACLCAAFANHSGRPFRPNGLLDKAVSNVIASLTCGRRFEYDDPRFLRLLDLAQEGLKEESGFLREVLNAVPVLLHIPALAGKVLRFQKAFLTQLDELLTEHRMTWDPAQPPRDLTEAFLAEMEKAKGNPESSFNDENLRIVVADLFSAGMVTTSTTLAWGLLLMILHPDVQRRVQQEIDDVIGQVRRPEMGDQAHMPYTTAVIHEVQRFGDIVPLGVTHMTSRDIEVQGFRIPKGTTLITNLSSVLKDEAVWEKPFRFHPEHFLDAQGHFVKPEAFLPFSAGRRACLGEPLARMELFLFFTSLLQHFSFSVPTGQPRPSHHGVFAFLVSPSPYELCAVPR
Description: (§1) Midazolam was obtained from BD Gentest (Waltham, Mass.); 1′ hydroxy midazolam and 1-hydroxy bufuralol maleate were obtained from Ultrafine Chemicals (Manchester, UK); bufuralol HCl, ketoconazole, quinidine, potassium phosphate, and NADPH were obtained from Sigma (St. Louis, Mo.). Test compounds were prepared at 10 mM concentration in DMSO (Mallinckrodt Inc., St. Louis, Mo.). NADPH was prepared at 10 mM concentration in a pH 7.4 buffer (8.3 mg/mL 66.7 mM potassium phosphate). Midazolam was prepared at 1 mM concentration in deionized water (Amgen, Thousand Oaks, Calif.), and bufuralol was prepared at 2 mM concentration in deionized water. A stock solution of ketoconazole was prepared at 37 mM concentration in DMSO, and quinidine was prepared at 500 uM concentration in DMSO. Formic acid in acetonitrile (0.05%, ACN) was used as a quench solution (Sigma-Aldrich, St. Louis, Mo.). All solvents used for LC/MS were of chromatographic grade. Pooled human liver microsomes (Lot 0610351) were purchased from XenoTech LLC, (Lenexa, Kans.).
Pooled human liver microsomes (0.25 mg/mL) were incubated at 37° C. in a phosphate buffer (66.7 mM potassium phosphate at pH 7.4) with the selective CYP2D6 substrate bufuralol at a concentration of 5 μM in the presence and absence of test compound (3 μM). The reaction was started with the addition of NADPH (1 mM final concentration). The reaction was stopped after 10 minutes by addition of formic acid in acetonitrile. 1-Hydroxybufuralol metabolite formation was measured by an HPLC MS detection method (mobile phases for HPLC were: 0.1% AcOH in 5% MeOH, and 0.1% AcOH in 95% MeOH; the HPLC column was an Onyx Monolithic C18 CHO-7645 HPLC column from Phenomenex; Shimadzu LC-10ADVP equipped Biomek FX Liquid handling system and CTC Analytics PAL well auto-sampler; Mass spectrometer: Applied Biosystems API 3000 using Analyst 1.4.1 software). Inhibition was determined by the ratio of the amount of 1-hydroxy bufuralol metabolite formed metabolite in the presence of test compound to the amount of metabolite in the absence of test compound.

[1] = In vivo pharmacokinetics, IV and oral gavage; set-up: species or system male Sprague-Dawley rats; conditions: rat; for FPO: Table 5; for Fpo (%): Table 6; for clearance / AUC(0-t) / Cmax / Vd: male, Sprague-Dawley, plasma; for Vd: read-out: Vss
Description: In vivo pharmacokinetic parameters were determined by measuring systemic plasma exposure in male Sprague-Dawley rats (Charles River Laboratories or Taconic, Oxnard, Calif.) by intravenous administration (N=3 fed rats: 2 mg/kg tail vein injection in DMSO) and oral gavage (N=3 fasted rats: 5 mg/kg in 1% Tween 80-2% HPMC-97% deionized water-pH 2.0 vehicle) (Comparative Example 18′ was only dosed IV and at 0.5 mg/kg). DMSO was obtained from Mallinckrodt Inc.; Tween 80 was obtained from Croda; HPMC is Methocel E50 Premium LV, obtained from Dow Excipients. Following oral administration, blood was drawn (250 μL) at 0.25, 0.5, 1, 2, 4, 6, 8, 12, and 16 hours. Following iv administration, blood was drawn (250 μL) at 0.083, 0.25, 0.5, 1, 2, 4, 6, 8, and 16 hours. Blood samples were drawn using a Culex® In Vivo Sampling System (BASi) and collected in BD Microtainer® tubes containing Lithium Heparin (BD). Plasma was obtained by centrifugation of blood at 14000 g and 2-8° C. for five minutes using an Eppendorf 5417R Centrifuge System. Plasma samples were mixed with 2× volume of acetonitrile (Sigma-Aldrich, St. Louis, Mo.). The mixture was stirred briefly using a vortex mixer and then centrifuged at 2867 g for 5 minutes in a Beckman Coulter Allegra 25R equipped with a Type S5700 rotor. The supernatant was removed and diluted 2× with mobile phase A (5/94.9/0.1 v/v/v MeOH/water/AcOH). Plasma concentrations were determined using liquid chromatography/tandem mass spectrometry, with electrospray ionization (ESI) and multiple reaction monitoring in the positive ion mode (Sciex API 3000 mass spectrometer connected to a Shimadzu LC-20AD pump and a LEAP PAL autosampler. Typical conditions used for HPLC were: mobile phase A=5/94.9/0.1 v/v/v MeOH/water/AcOH and mobile phase B=95/4.9/0.1 v/v/v MeOH/water/AcOH; HPLC column was a Varian MonoChrom C18.3μ for 2×30 mm and 51.1 for 2×50 mm) Instrument response was calibrated by a standard curve over 0.1-2000 ng/mL concentration range, and the lower limit of quantitation was 0.1-2.5 ng/mL. Peak areas were integrated on a Windows 2000 computer using the Sciex program Analyst® (Version 1.4.1). Following peak area integration, the data were exported to the software package (Watson® Non-GLP PROD (Version 7.0.0.01, Thermo Electron Corp., Waltham, Mass.)), where concentrations were determined by a weighted linear regression of peak area versus the nominal concentrations of the calibration standards. Calculations were performed on unrounded numbers. The Watson® Non-GLP PROD software was used to determine precision and accuracy for the calibration standards. Noncompartmental analysis of plasma concentration data was used to generate PK parameters such as clearance (CL, L/h/kg), volume of distribution (Vss, L/kg), area under the curve (AUC, ng·h/mL) and secondary parameters such as half-life (t1/2, h) and oral bioavailability (% F, %). This was done using WinNonlin Enterprise software (Version 5.1.1, from Pharsight Corp., Mountain View, Calif.). References for pharmacokinetic analysis include: Gabrielsson and Weiner (1997) Pharmacokinetic and Pharmacodynamic Data Analysis Concepts and Applications, 2nd ed., Swedish Pharmaceutical Press, Stockholm; Gibaldi and Perrier (1982) Pharmacokinetics, 2nd ed., Marcel Dekker, New York. Rowland and Tozer (1995) Clinical Pharmacokinetics: Concepts and Applications, 3rd ed., Lippincott Williams & Wilkins, Philadelphia.

CYP3A4 = biological target: T2, CYP3A4 (Homo sapiens, UniProt P08684); experiment: CYP3A4 inhibition assay (midazolam, pooled human liver microsomes); type: in vitro ADME; conditions: pH 7.4, probe midazolam (2.5 μM), test compound 3 μM, human liver microsomes 0.1 mg/mL
T2 construct: tissue XenoTech LLC Lot 0610351; host or cells: pooled human liver microsomes
T2 sequence (P08684 whole entry): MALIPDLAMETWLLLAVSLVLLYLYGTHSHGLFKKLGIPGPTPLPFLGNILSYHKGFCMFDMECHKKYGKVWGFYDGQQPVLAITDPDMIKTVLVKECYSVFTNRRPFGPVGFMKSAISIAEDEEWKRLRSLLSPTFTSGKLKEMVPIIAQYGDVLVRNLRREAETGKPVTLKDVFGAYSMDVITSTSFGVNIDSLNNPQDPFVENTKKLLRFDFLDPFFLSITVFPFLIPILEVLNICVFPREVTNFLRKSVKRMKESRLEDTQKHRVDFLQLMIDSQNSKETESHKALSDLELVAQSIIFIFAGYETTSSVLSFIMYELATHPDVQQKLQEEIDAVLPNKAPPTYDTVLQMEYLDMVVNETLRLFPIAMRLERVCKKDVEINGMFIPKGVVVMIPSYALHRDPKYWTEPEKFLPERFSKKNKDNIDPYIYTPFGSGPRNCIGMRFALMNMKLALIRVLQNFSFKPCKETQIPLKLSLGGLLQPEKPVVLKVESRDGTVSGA
Description: as §1
Pooled human liver microsomes (0.1 mg/mL) were incubated at 37° C. in a phosphate buffer (66.7 mM potassium phosphate at pH 7.4) with the selective CYP3A substrate midazolam at a concentration of 2.5 μM in the presence and absence of test compound (3 μM). The reaction was started with the addition of NADPH (1 mM final concentration). The reaction was stopped after 10 minutes by addition of formic acid in acetonitrile. 1′-Hydroxymidazolam metabolite formation was measured by an HPLC MS detection method (mobile phases were 0.1% AcOH in 5% MeOH, and 0.1% AcOH in 95% MeOH; the HPLC column was an Onyx Monolithic C18 CHO-7645 HPLC column obtained from Phenomenex; Shimadzu LC-10ADVP equipped Biomek FX Liquid handling system and CTC Analytics PAL well auto-sampler; Mass spectrometer: Applied Biosystems API 3000 using Analyst 1.4.1 software). Inhibition was determined by the ratio of the amount of 1′-hydroxy midazolam metabolite formed in the presence of test compound to the amount of metabolite found in the absence of test compound Inhibition was measured relative to the rate of formation of 1′-hydroxy midazolam incubated at 2.5 μM without test compound.

[2] = IV 2 mg/kg, read-out: IV AUClast
[3] = PO 5 mg/kg, read-out: Oral AUClast
[4] = PO 5 mg/kg, read-out: Oral Cmax

| Compound | inhibition at 10 min, 3 μM (CYP2D6) [%] | FPO ([1]; PO 5 mg/kg, IV 2 mg/kg) [%] | Fpo (%) ([1]; PO 5 mg/kg, IV 2 mg/kg) | clearance ([1]; IV 2 mg/kg) [mL/min/kg] | AUC(0-t) [1, 2] [ng·h/mL] | Cmax ([1]; IV 2 mg/kg, read-out: IV Cmax) [ng/mL] | Vd ([1]; IV 2 mg/kg) [L/kg] | AUC(0-t) [1, 3] [ng·h/mL] | Cmax [1, 4] [ng/mL] | inhibition at 10 min, 3 μM (CYP3A4) [%] |
| --- | --- | --- | --- | --- | --- | --- | --- | --- | --- | --- |
| CC(F)(F)c1ccc(C[C@H](N)CNc2ncc(-c3ccc4cnccc4c3)s2)cn1 [7′, reference compound] | 79 | 4 | 3 | 97.9 | 336 | 490 | 4.55 | 30 | 8 | 86 |
| COCc1nc(NC[C@@H](N)Cc2ccc(C(F)(F)F)cc2)sc1-c1ccc2cnccc2c1 [24′, reference compound] | 94 | 14 | 19 | 90.1 | 369 | 465 | 10.2 | 129 | 51 | 100 |
| N[C@H](CNc1ncc(-c2ccc3cnccc3c2)s1)[C@@H](CO)c1ccc(C(F)(F)F)cc1 [33′, reference compound] | 88 | 12 | 10 | 47.5 | 691 | 797 | 4.18 | 199 | 23 | 91 |
| N[C@H](CCc1ncc(-c2ccc3cnccc3c2)s1)[C@@H](O)c1ccc(C(F)(F)F)cc1 [36′, reference compound] | 86 | 20 | 19 | 150 | 221 | 347 | 13.2 | 113 | 27 | 72 |
| CC(F)(F)c1ccc([C@H](O)[C@H](N)CNc2ncc(-c3ccc4cnccc4c3)s2)cc1 [38′, reference compound] | 88 | 4 | 4 | 108 | 299 | 412 | 6.67 | 30 | 13 | 86 |
| N[C@H](CNc1ncc(-c2ccc3cnccc3c2)s1)CN1CCC(C(F)(F)F)CC1 [Comparative Example 25′, reference compound] | 81 | 146 | 65 | 85.6 | 359 | 284 | 8.78 | 1310 | 153 | 94 |

Further lines, results first:

| inhibition at 10 min, 3 μM (CYP2D6) [%] | FPO ([1]; PO 5 mg/kg, IV 2 mg/kg) [%] | Fpo (%) ([1]; PO 5 mg/kg, IV 2 mg/kg) | clearance ([1]; IV 2 mg/kg) [mL/min/kg] | AUC(0-t) [1, 2] [ng·h/mL] | Cmax ([1]; IV 2 mg/kg, read-out: IV Cmax) [ng/mL] | Vd ([1]; IV 2 mg/kg) [L/kg] | AUC(0-t) [1, 3] [ng·h/mL] | Cmax [1, 4] [ng/mL] | inhibition at 10 min, 3 μM (CYP3A4) [%] | Compound |
| --- | --- | --- | --- | --- | --- | --- | --- | --- | --- | --- |
| 94 | 5 | 5 | 37.4 | 870 | 1260 | 2.32 | 117 | 29 | 100 | N[C@H](CNc1ncc(-c2ccc3cnccc3c2)s1)Cc1ccc(C(F)(F)F)nc1 [2′, reference compound] |
| 78 | 27 | 20 | 50.9 | 651 | 422 | 6.17 | 432 | 86 | 87 | N[C@H](CNc1ncc(-c2ccc3cnccc3c2)s1)Cc1ccc(C(F)(F)F)cc1 [4′, reference compound] |
| 86 | 12 | 25 | 19.1 | 1680 | 730 | 9.46 | 487 | 73 | 94 | C[C@@H](c1ccc(C(F)(F)F)cc1)[C@H](N)CNc1ncc(-c2ccc3cnccc3c2)s1 [10′, reference compound] |
| 75 | 51 | 45 | 41.5 | 787 | 816 | 0.766 | 1000 | 138 | 94 | N[C@H](CNc1ncc(-c2ccc3cnccc3c2)s1)Cc1ccc(Cl)c(F)c1 [44′, reference compound] |
